Experimental data published in ChEMBL document CHEMBL1134873, “Synthesis and antiparasitic activity of 1H-benzimidazole derivatives” (Bioorg Med Chem Lett, 2002).

Legend:
Entamoeba histolytica = test: The compound was tested in vitro against the protozoa Entamoeba histolytica, for the inhibition of tubulin polymerization in rat brain; type: functional
Giardia intestinalis = test: The compound was tested in vitro against the protozoa Giardia lamblia, for the inhibition of tubulin polymerization in rat brain; type: functional; conditions: Giardia duodenalis
Trichinella spiralis [1] = test: Percentage viability reduction of Trichinella spiralis muscle larvae after 3 days of incubation; type: functional; design: concentration or dose not given beside the values
Trichinella spiralis [2] = test: Percentage viability reduction of Trichinella spiralis muscle larvae after 3 days of incubation; No reduction observed; type: functional, organism-based

Structure (SMILES) | IC50 (Entamoeba histolytica) | IC50 (Giardia intestinalis) | Viability (Trichinella spiralis [1]) | Viability (Trichinella spiralis [2])
Sc1nc2cc(Cl)c(Cl)cc2[nH]1 | 55 nM | 78 nM | 23% | 
Clc1cc2nc[nH]c2cc1Cl | 96 nM | 358 nM | 18% | 
Cc1nc2cc(Cl)c(Cl)cc2[nH]1 | 25 nM | 65 nM | 8% | 
Cc1nc2cc(Cl)ccc2[nH]1 | 84 nM | 156 nM | 14% | 
COC(=O)Nc1nc2cc(Cl)c(Cl)cc2[nH]1 | 46 nM | 127 nM | 14% | 
CSc1nc2cc(Cl)c(Cl)cc2[nH]1 | 356 nM | 227 nM | 17% | 
c1ccc2[nH]cnc2c1 [BENZIMIDAZOLE] | 42 nM | 8 nM |  | No reduction observed
Sc1nc2cc(Cl)ccc2[nH]1 | 5 nM | 81 nM | 13% | 
Sc1nc2ccccc2[nH]1 [2-MERCAPTOBENZIMIDAZOLE] | 133 nM | 40 nM | 11% | 
Clc1ccc2[nH]cnc2c1 | 39 nM | 282 nM | 27% | 
Nc1nc2ccccc2[nH]1 | 114 nM | 1900 nM | 9% | 
CSc1nc2cc(Cl)ccc2[nH]1 | 192 nM | 5 nM | 15% | 
Nc1nc2ccc(Cl)cc2[nH]1 | 125 nM | 30 nM | 17% | 
CSc1nc2ccccc2[nH]1 | 393 nM | 45 nM |  | No reduction observed
COC(=O)Nc1nc2ccccc2[nH]1 [CARBENDAZIM] | 204 nM | 57 nM |  | No reduction observed
COC(=O)Nc1nc2cc(Cl)ccc2[nH]1 | 350 nM | 66 nM | 19% | 
CCCSc1ccc2[nH]c(NC(=O)OC)nc2c1 [ALBENDAZOLE] |  |  | 34% | 
Nc1nc2cc(Cl)c(Cl)cc2[nH]1 | 59 nM | 218 nM | 2% | 
Cc1nc2ccccc2[nH]1 | 7 nM | 317 nM |  | No reduction observed
